Measured values taken from patent US10744128B2, “6-(5-membered heteroaryl)isoquinolin-3-yl-(5-membered heteroaryl) carboxamides and preparation and use thereof” (Samumed, LLC, priority 2017, dated 2020).
Where two headings read alike, the source gives them in different places.

Tests used:
[1] = tested on: Wnt-responsive promoter (Sp5-Luc reporter) in SW480 colon carcinoma cells; assay: Sp5-Luc reporter gene screening assay for Wnt activity in SW480 cells; type: cell-based, human; conditions: Homo sapiens, 36 to 48 hours, luminescence
Description: The screening assay for Wnt activity is described as follows. Reporter cell lines can be generated by stably transducing cancer cell lines (e.g., colon cancer) or primary cells (e.g., IEC-6 intestinal cells) with a lentiviral construct that includes a Wnt-responsive promoter driving expression of the firefly luciferase gene.
SW480 colon carcinoma cells were transduced with a lentiviral vector expressing luciferase with a human Sp5 promoter consisting of a sequence of eight TCF/LEF binding sites. SW480 cells stably expressing the Sp5-Luc reporter gene and a hygromycin resistance gene were selected by treatment with 150 μg/mL of hygromycin for 7 days. These stably transduced SW480 cells were expanded in cell culture and used for all further screening activities. […] For Sp5-Luc reporter gene assays, the cells were plated at 4,000 cells/well in 384-well plates with a DMEM medium containing 1% fetal bovine serum, and 1% Penicillin-Streptomycin and incubated for 36 to 48 hours at 37° C. and 5% CO2. Following incubation, 15 μl of BriteLite Plus luminescence reagent (Perkin Elmer) was added to each well of the 384-well assay plates. The plates were placed on an orbital shaker for 2 min and then luminescence was quantified using the Envision (Perkin Elmer) plate reader. Readings were normalized to DMSO only treated cells, and normalized activities were utilized for EC50 calculations using the dose-response log (inhibitor) vs. response −variable slope (four parameters) nonlinear regression feature available in GraphPad Prism 5.0 (or Dotmatics).

recombinant GSK3β kinase = recombinant GSK3β kinase (Homo sapiens (Human), UniProt P49841); assay: GSK3β kinase assay (Ser/Thr 09 peptide Z-lyte, FRET); type: biochemical
[2] = tested on: SW480 colon carcinoma cells; assay: Cell viability assay (CellTiter-Glo) in SW480 cells; type: cell-based, human; conditions: Homo sapiens, 96 h, four days
Procedure: SW480 colon carcinoma cells were transduced with a lentiviral vector expressing luciferase with a human Sp5 promoter consisting of a sequence of eight TCF/LEF binding sites. SW480 cells stably expressing the Sp5-Luc reporter gene and a hygromycin resistance gene were selected by treatment with 150 µg/mL of hygromycin for 7 days. These stably transduced SW480 cells were expanded in cell culture and used for all further screening activities.
For the Cell Viability Assays, the cells were plated at 2,000 cells/well in 384-well plates with a DMEM medium containing 1% fetal bovine serum, and 1% Penicillin-Streptomycin and incubated for […] at 37° C. and 5% CO2. Eight replicates of DMSO-treated cells served as controls and cells treated with compound were performed in duplicate.
After incubation, 10 μL of CellTiter-Glo (Promega) was added to each well allowed to incubate for approximately 12 minutes. This reagent “results in cell lysis and generation of a luminescent signal proportional to the amount of ATP present. The amount of ATP is directly proportional to the number of cells present in culture, in agreement with previous reports. The CellTiter-Glo® Assay generates a “glow-type” luminescent signal, produced by the luciferase reaction (Promega.com)”.

[3] = tested on: primary human fibroblasts derived from IPF patients (LL29 cells), α-smooth muscle actin; assay: Inhibition of fibrotic process: αSMA in TGF-β1 treated LL29 fibroblasts; type: cell-based; conditions: Homo sapiens, Fibroblast; for EC50: 96 h, LL29 cells, TGF-β1 20 ng/mL, 4 days, % cells positive for αSMA; for inhibition at 10 µM: read-out: percent inhibition at 10 μM
Procedure: Representative compounds were screened using primary human fibroblasts (derived from IPF patients) treated with TGF-β1 to determine their ability to inhibit the fibrotic process.
LL29 cells were plated at 1,500 cells/well in 70 μL/well F12 medium supplemented with 1% Fetal Bovine Serum. […] Wells treated with TGF-β1 and containing DMSO were used as positive control, and cells with only DMSO were negative control. […] Following incubation for 4 days, SYTOX green nucleic acid stain (Life Technologies [Thermo Fisher Scientific]) was added to the wells at a final concentration of 1 μM and incubated at room temperature for 30 min.

IL-6 = IL-6 inhibition in LPS-stimulated human peripheral blood mononuclear cells (HTRF); type: cell-based; conditions: Homo sapiens, PBMC; for EC50: huPBMCs, LPS 50 ng/mL, 22 hours, IL-6 HTRF; for inhibition at 10 µM: read-out: percent inhibition at 10 μM
Procedure: Fresh Normal PB MNC (Catalog # PB001, AllCells, Alameda, Calif.) were shipped overnight at 4° C. and resuspended in Roswell Park Memorial Institute (RPMI) 1640 Medium, with GlutaMAX Supplement (Catalog #61870127, ThermoFisher Scientific, Waltham, Mass.) supplemented with 1% Penicillin-Streptomycin (Catalog #15140163, ThermoFisher Scientific, Waltham, Mass.) and 1% fetal bovine serum (FBS) (Catalog #16140089, ThermoFisher Scientific, Waltham, Mass.) assay media.
Fresh normal human peripheral blood mononuclear cells (huPBMCs) were resuspended in 1% FBS-RPMI assay media with 1% Penicillin-Streptomycin 1% to a cell concentration of 1×10e6 cells/mL. […] 50 ng/mL of Lipopolysaccharides from Escherichia coli 0111:B4 (Catalog #L5293-2ML, Sigma-Aldrich, St. Louis, Mo.) was added after 2 hours and cells were incubated for another 22 hours at 37° C.-5% CO2. After 22 hour incubation, a mixture of anti-IL6 XL665 and anti-IL-6 Cryptate diluted in reconstitution buffer (Catalog #62IL6PEC, Cisbio Inc., Bedford, Mass.) was added to each well. Following incubation for 3 hours at room temperature, Homogeneous Time-Resolved Fluorescence (HTRF) was measured using the Envision (Perkin Elmer, Shelton, Conn.) at 665 nm and […]. The ratio of fluorescence at 665 nm to 620 nm was used as a readout for IL-6 quantification. All samples were processed in duplicate. Readings were normalized to DMSO treated cells and normalized activities were utilized for EC50 calculations. EC50 was determined using software generated by Dotmatics Limited (Windhill Bishops Stortford Herts, UK) using the Levenberg-Marquardt 4 parameter fitting procedure with finite different gradients.

[4] = biological target: recombinant DYRK1A kinase (Homo sapiens (Human), UniProt Q13627); assay: DYRK1A kinase assay (Ser/Thr 18 peptide Z-lyte, FRET)
Procedure: Each compound was dissolved in DMSO as a 10 mM stock and used to prepare compound source plates.
This is a non-radioactive assay using fluorescence resonance energy transfer (FRET) between coumarin and fluorescein to detect kinase activity which is represented as a ratio of coumarin emission/fluorescein emission.
The mixture was allowed to incubate with the representative compounds for one hour at room temperature. All reactions were performed in duplicate. Unphosphorylated (“0% Control”) and phosphorylated (“100% control”) forms of Ser/Thr 18 served as control reactions. Additionally, an 11-point dose-response curve of Staurosporine (1 uM top) was run to serve as a positive compound control.
After incubation, Development Reagent A was diluted in Development Buffer then added to the reaction and allowed to further incubate for one hour at room temperature.
Dose-response curves were generated and inhibitory concentration (IC50) values were calculated using non-linear regression curve fit in the Dotmatics' Studies Software (Bishops Stortford, UK).

[5] = GSK3β kinase, 46 μM ATP, one hour, method calls values IC50
[6] = DYRK1A kinase, 30 μM ATP, one hour, method calls values IC50

recombinant GSK3β kinase, sequence (P49841 whole entry): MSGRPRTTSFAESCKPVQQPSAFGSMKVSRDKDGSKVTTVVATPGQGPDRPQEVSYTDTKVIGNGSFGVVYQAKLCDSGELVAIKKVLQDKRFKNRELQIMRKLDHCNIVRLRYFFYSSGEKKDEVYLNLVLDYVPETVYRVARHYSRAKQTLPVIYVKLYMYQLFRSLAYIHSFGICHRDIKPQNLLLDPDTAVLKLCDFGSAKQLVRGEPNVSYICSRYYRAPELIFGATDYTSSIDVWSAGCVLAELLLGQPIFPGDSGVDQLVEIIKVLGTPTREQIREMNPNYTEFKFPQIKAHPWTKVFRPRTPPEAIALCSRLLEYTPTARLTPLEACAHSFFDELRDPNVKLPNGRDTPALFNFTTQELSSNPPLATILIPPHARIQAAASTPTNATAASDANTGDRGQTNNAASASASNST

Compound | EC50 [1] | EC50 (recombinant GSK3β kinase; [5]) | EC50 [2] | EC50 [3] | EC50 (IL-6) | EC50 [4, 6] | inhibition at 10 µM [3] | inhibition at 10 µM (IL-6) | EC50 (recombinant GSK3β kinase) | EC50 [4]
CC(C)N1CCC(n2cc(C(=O)Nc3cc4cc(-c5cn(C)nn5)ccc4cn3)nn2)CC1 [Compound 35, 1-(1-Isopropylpiperidin-4-yl)-N-(6-(1-methyl-1H-1,2,3-triazol-4-yl)isoquinolin-3-yl)-1H-1,2,3-triazole-4-carboxamide] | 111 nM | 295 nM | 306 nM | 635 nM | 2110 nM | 10 nM | – | – | – | –
Cn1cc(-c2ccc3cnc(NC(=O)c4coc(C5CCNCC5)n4)cc3c2)nn1 [Compound 36, N-(6-(1-Methyl-1H-1,2,3-triazol-4-yl)isoquinolin-3-yl)-2-(piperidin-4-yl) oxazole-4-carboxamide] | 114 nM | 458 nM | 399 nM | 596 nM | 2540 nM | 19 nM | – | – | – | –
CN1CCC(c2nc(C(=O)Nc3cc4cc(-c5cn(C)nn5)ccc4cn3)co2)CC1 [Compound 37, N-(6-(1-Methyl-1H-1,2,3-triazol-4-yl)isoquinolin-3-yl)-2-(1-methylpiperidin-4-yl)oxazole-4-carboxamide] | 105 nM | 342 nM | 179 nM | 248 nM | 2660 nM | 24 nM | – | – | – | –
CC(C)N1CCC(c2nc(C(=O)Nc3cc4cc(-c5cn(C)nn5)ccc4cn3)co2)CC1 [Compound 38, 2-(1-Isopropylpiperidin-4-yl)-N-(6-(1-methyl-1H-1,2,3-triazol-4-yl)isoquinolin-3-yl)oxazole-4-carboxamide] | 555 nM | 1350 nM | 1630 nM | > 10000 nM | > 10000 nM | 180 nM | 3.9% | 5.3% | – | –
Cn1cc(C(=O)Nc2cc3cc(-c4cncn4C)ccc3cn2)cn1 [Compound 40, 1-Methyl-N-(6-(1-methyl-1H-imidazol-5-yl)isoquinolin-3-yl)-1H-pyrazole-4-carboxamide] | 109 nM | 1830 nM | 442 nM | > 10000 nM | 751 nM | 4 nM | 23.2% | – | – | –
CCn1cc(C(=O)Nc2cc3cc(-c4cncn4C)ccc3cn2)cn1 [Compound 41, 1-Ethyl-N-(6-(1-methyl-1H-imidazol-5-yl)isoquinolin-3-yl)-1H-pyrazole-4-carboxamide] | 37 nM | 850 nM | 102 nM | 122 nM | 618 nM | 2 nM | – | – | – | –
CC(C)n1cc(C(=O)Nc2cc3cc(-c4cncn4C)ccc3cn2)cn1 [Compound 42, 1-Isopropyl-N-(6-(1-methyl-1H-imidazol-5-yl)isoquinolin-3-yl)-1H-pyrazole-4-carboxamide] | 602 nM | 9990 nM | 999 nM | 2500 nM | > 10000 nM | 23 nM | – | 37.1% | – | –
[2H]c1nc(NC(=O)c2cnn(C(C)C)c2)cc2cc(-c3cncn3C)ccc12 [Compound 43, 1-Isopropyl-N-(6-(1-methyl-1H-imidazol-5-yl)isoquinolin-3-yl-1-d)-1H-pyrazole-4-carboxamide] | 48 nM | – | 83 nM | 151 nM | 251 nM | – | – | – | 3070 nM | 2 nM
Cn1cncc1-c1ccc2cnc(NC(=O)c3cnn(C4CC4)c3)cc2c1 [Compound 44, 1-Cyclopropyl-N-(6-(1-methyl-1H-imidazol-5-yl)isoquinolin-3-yl)-1H-pyrazole-4-carboxamide] | 37 nM | 1660 nM | 94 nM | 115 nM | 356 nM | 1 nM | – | – | – | –
CC(C)Cn1cc(C(=O)Nc2cc3cc(-c4cncn4C)ccc3cn2)cn1 [Compound 45, 1-Isobutyl-N-(6-(1-methyl-1H-imidazol-5-yl)isoquinolin-3-yl)-1H-pyrazole-4-carboxamide] | 55 nM | 1190 nM | 111 nM | 88 nM | 414 nM | 1 nM | – | – | – | –
Cn1ccc(C(=O)Nc2cc3cc(-c4cncn4C)ccc3cn2)n1 [Compound 46, 1-Methyl-N-(6-(1-methyl-1H-imidazol-5-yl)isoquinolin-3-yl)-1H-pyrazole-3-carboxamide] | 1250 nM | 1770 nM | 2180 nM | 1530 nM | > 10000 nM | 5 nM | – | 46.1% | – | –
Cn1cc(CC(=O)Nc2cc3cc(-c4cncn4C)ccc3cn2)cn1 [Compound 47, N-(6-(1-methyl-1H-imidazol-5-yl)isoquinolin-3-yl)-2-(1-methyl-1H-pyrazol-4-yl)acetamide] | 556 nM | 29 nM | 607 nM | 94 nM | 388 nM | 3 nM | – | – | – | –
Cn1cnc(C(=O)Nc2cc3cc(-c4cncn4C)ccc3cn2)c1 [Compound 48, 1-Methyl-N-(6-(1-methyl-1H-imidazol-5-yl)isoquinolin-3-yl)-1H-imidazole-4-carboxamide] | 1160 nM | 3380 nM | 3550 nM | > 10000 nM | > 10000 nM | 18 nM | 6.7% | 17.8% | – | –
CC(C)n1cnc(C(=O)Nc2cc3cc(-c4cncn4C)ccc3cn2)c1 [Compound 49, 1-Isopropyl-N-(6-(1-methyl-1H-imidazol-5-yl)isoquinolin-3-yl)-1H-imidazole-4-carboxamide] | 35 nM | 1340 nM | 73 nM | 86 nM | 285 nM | 2 nM | – | – | – | –
Cn1cncc1-c1ccc2cnc(NC(=O)c3cn(C4CCOCC4)cn3)cc2c1 [Compound 50, N-(6-(1-Methyl-1H-imidazol-5-yl)isoquinolin-3-yl)-1-(tetrahydro-2H-pyran-4-yl)-1H-imidazole-4-carboxamide] | 100 nM | 4490 nM | 833 nM | 1180 nM | 3280 nM | 21 nM | – | – | – | –
